What all share (format): cell-based, Wistar sucking mice
The subject of experiment [1] is cardiomyocyte apoptosis induced by anoxia. As to the kind of experiment: Protection against anoxia-induced cardiomyocyte apoptosis (HCS fluorescence staining). The following applies: for Nucleus area (%): Hoechst staining; for Mitochondrial transmembrane potential: MitoTracker Red. How it is done: (§1) The isolation and culture of cardiomyocytes were performed by referring to the differential adhesion method (Kreider, A. Messing, H. Doan, S. U. Kim, R. P. Lisak and D. E. Pleasure, Enrichment of Schwann cell cultures from neonatal rat sciatic nerve by differential adhesion, Brain Res 2 (1981), pp. 433-444). Wistar sucking mice newborn within 24 h were used, sterilized at skin of ventrum with iodine tincture and ethanol, subjected to thoracotomy using scissors at subxiphoid median line with a deviation to left, heart was taken out after slant thoracotomy and placed in PBS precooled with ice; the heart was softly blown and beaten with 0.01 M PBS to remove blood cells and other tissues, then cut into pieces with 0.5 mm^3 size, washed with 0.01 M PBS repeatedly for 2-3 times; the pieces were placed in conical flask, added with 4 ml of 0.125% pancretin, 1 ml of 0.1% collagenase II (final concentrations separately being 0.1% and 0.02%), shaken in 37° C. water bath for 10 min, the supernatant was discarded; then 4 ml of 0.125% pancretin and 1 ml of 0.1% collagenase II again, shaken in 37° C. water bath for digestion for 10 min, the supernatant was sucked and transferred to a centrifuge tube, and the supernatant was added with DMEM containing 10% FBS to terminate digestion; the step of shaking and digestion in water bath was repeated for 3-4 times, until the tissue pieces were completely digested; the collected cell suspension was centrifuged under 1000 rpm for 10 min, the supernatant was removed, then a culture medium was added for resuspension; the resuspended cells were inoculated in a cell culture flask, placed in CO2 incubator at 37° C. for incubation for 1.5 h, then the culture medium was sucked out, countered under microscope, then DMEM culture medium containing 10% FBS was used to adjust cell density, inoculated in an amount of 1×10^4 to a 96-well plate, placed in 5% CO2 incubator at 37° C. for 24 h, then half medium was replaced, a culture medium containing 0.1% Brdu was supplementally added; then the medium was replaced once per 48 h, and primary cardiomyocytes were obtained after 4 days of cultivation.
Cardiomyocyte was obtained by primary culture according to Example 18, cell density 10^4/mL, each wall was added with 100 μL of suspension of the cells. The cells were incubated at 37° C., 5% CO2 environment for 96 h (replacing solution once per 48 h). After primary culture for 4 days, cell apoptosis was induced by placing in an anoxia incubator, the compounds of the present invention at different concentrations were added for pretreatment 30 min before inducing cell apoptosis, then placed in 37° C., 5% CO2-95% N2 incubator and cultured for 15.5 h. It was 30 min before the compound incubation finished, 50 μL of culture medium, 50 μL of Mitotracker/Hoechst solution, were added, and the cells were then continuously cultured at 37° C., 5% CO2-95% N2 for 30 min.
Each well was directly added with 100 μL of fixing solution, without sucking out the culture medium, incubated at room temperature in fume cupboard for 10 min. The pre-heated fixing solution was very important for keeping cell integrity.
The solution of each well was sucked out (the plate could be turned over), washed with 1× Wash Buffer (100 μL/well) once. Carefulness was kept during operation and washing procedure to maintain cell adhesion and integrity. Good results could be obtained by slowly sucking and releasing liquid. Wash Buffer was sucked out, 1× penetrating membrane solution (100 uL/well) was added, incubated at room temperature for 15 min. The penetrating membrane solution was sucked out, each well was washed once with 100 μL/well of 1× Wash Buffer. The Wash Buffer was sucked out, each well was added with 50 μL of Alexa Fluor 488 Phalloidin Solution, incubated at room temperature in dark for 30 min. The Alexa Fluor 488 Phalloidin solution was sucked out, washed with 1× Wash Buffer for three times, and the solution of the last time was kept in the well. […]

Experiment [2] deals with cardiomyocytes. Kind of experiment: Measurement of cell inhibition rate (MTT) on normal primary cardiomyocytes. The following applies: 48 h; for inhibition at 300 µM: Cardiomyocyte; for Inhibition rate (%) of cardiomyocytes: 300 μM. On the procedure: as §1
The isolated primary culture of cardiomyocytes was inoculated in an amount of 10^4 cells per well to a 96-well plate, and the volume of each well was 100 μl (marginal wells were filled with sterile PBS). […] After continuous inoculation for 48 h, each well was added with 20 μl of MTT solution (5 mg/ml, formulated with PBS (pH=7.4), i.e., 0.5% MTT), and the cultivation was continued for 4 h. After the end of cultivation, culture medium in wells was carefully sucked out. Each well was added with 150 μl of DMSO, shaken at a low speed in a shaking table for 10 min, so that the crystal was sufficiently dissolved. The optical density (OD) value of each well was measured at wavelength of 550 nm by enzyme-linked immunoassay instrument, and each well was repeatedly measured for 5 times and the results were recorded.

Experiment [3] has as its system TG-induced cardiomyocytes apoptosis. As to the kind of experiment: Protection against TG-induced cardiomyocyte apoptosis (MTT). On the procedure: as §1
The isolated primary culture of cardiomyocytes was inoculated in an amount of 10^4 cells per well to a 96-well plate, and the volume of each well was 100 μl (marginal wells were filled with sterile PBS). After being cultivated in 5% CO2 and 37° C. incubator for 4 d, they were added with the compound of Formula I at different concentrations (0.3 μM, 1 μM, 3 μM, 10 μM, 30 μM, 100 μM), 3 double-wells were set for each concentration, at the same time, zero setting wells (culture medium, MTT, DMSO), and control wells (culture medium, DMSO) were also set. After continuous inoculation for 48 h, each well was added with 20 μl of MTT solution (5 mg/ml, formulated with PBS (pH=7.4), i.e., 0.5% MTT), and the cultivation was continued for 4 h. After the end of cultivation, culture medium in wells was carefully sucked out. Each well was added with 150 μl of DMSO, shaken at a low speed in a shaking table for 10 min, so that the crystal was sufficiently dissolved. The optical density (OD) value of each well was measured at wavelength of 550 nm by enzyme-linked immunoassay instrument, and each well was repeatedly measured for 5 times and the results were recorded.
Cardiomyocytes were subjected to the primary culture for 4 days according to the above method, and then added with thapsigargin (TG) to induce apoptosis. The compound of the present invention was added for pretreatment 30 min before inducing apoptosis. […] TG was formulated with DMSO, the mother liquid was of 4 mM; and the compound of the present invention was formulated with DMSO, and the mother liquid was of 150 mM. The cell survival rate was measured according to the above MTT method, so as to test the protection effects of the compound of the present invention on the TG-induced cardiomyocytes apoptosis, and the results are shown in Table 2. […]

[4] abbreviates: compound 1 μM + TG 0.4 uM, pretreatment 30 min.
The mark [5] stands for this setting: compound 3 μM + TG 0.4 uM, pretreatment 30 min.
Where [6] appears, read: compound 10 μM + TG 0.4 uM, pretreatment 30 min.
Where [7] appears, read: compound 0.3 μM + TG 0.4 uM, pretreatment 30 min.

The inhibition is the share of the control response that was lost under treatment. Low values mean little suppression, high ones strong suppression.

For `O=C(/C=C/c1cccs1)NC(NC(=S)Nc1cccc2cccnc12)C(Cl)(Cl)Cl` (stereo not drawn) [Example 1, (2E)-3-(2-thienyl)-N-[1-(8-quinolylamino)thioformylamino-2,2,2-trichloroethyl]-2-acrylamide], in experiment [1] (10 μM), the light flux is on record as 1201.92 ± 29.95, the “Nucleus area (%)” value was 112.61 ± 7.78% and the Mitochondrial transmembrane potential is recorded as 112.68 ± 1.46.
`CC(C)OCCCNC(=S)NC(NC(=O)/C=C/c1cccs1)C(Cl)(Cl)Cl` (stereo not drawn) [Example 9, (2E)-3-(2-thienyl)-N-[1-(3-isopropoxypropylamino)thioformylamino-2,2,2-trichloroethyl]-2-acrylamide] gave an inhibition at 300 µM in experiment [2] of 5.3 ± 0.95%.
On the same count and under the same terms, the same measure for `O=C(/C=C/c1cccs1)NC(NC(=S)Nc1ccccc1F)C(Cl)(Cl)Cl` (stereo not drawn) [Example 8, (2E)-3-(2-thienyl)-N-[1-(2-fluoroanilino)thioformylamino-2,2,2-trichloroethyl]-2-acrylamide]: 6.82 ± 1.21%.
In experiment [2], `CS/C(=N\C(NC(=O)/C=C/c1cccs1)C(Cl)(Cl)Cl)Nc1cccc2cccnc12` (stereo not drawn) [Example 14, (2E)-3-(2-thienyl)-N-[1-(8-quinolylamino)methylthiomethenylamino-2,2,2-trichloroethyl]-2-acrylamide] registered an inhibition at 300 µM of 8.34 ± 5.78%.
With `O=C(/C=C/c1cccs1)NC(NC(=S)NC1CCCCC1)C(Cl)(Cl)Cl` (stereo not drawn) [Example 6, (2E)-3-(2-thienyl)-N-(1-cyclohexylaminothio formylamino-2,2,2-trichloroethyl)-2-acrylamide], the “Survival rate (%) of Cardiomyocyte” value in experiment [3] (setting [4]) amounted to 76 ± 7%. For the same molecule, in experiment [3] (setting [5]), the “Survival rate (%) of Cardiomyocyte” value came out at 70 ± 6%. The “Survival rate (%) of Cardiomyocyte” value in experiment [3] (setting [6]) is 78 ± 9%. In experiment [2], this molecule showed an inhibition at 300 µM of 5.54 ± 3.61%. In addition, in experiment [1] (1 μM), the light flux is listed as 1077.08 ± 55.63, the “Nucleus area (%)” value was 100.00 ± 4.63% and the Mitochondrial transmembrane potential was determined as 112.92 ± 0.82.
With `CC(C)NC(=S)NC(NC(=O)/C=C/c1cccs1)C(Cl)(Cl)Cl` (stereo not drawn) [Example 7, (2E)-3-(2-thienyl)-N-[1-isopropylaminothioformylamino-2,2,2-trichloroethyl]-2-acrylamide], the “Survival rate (%) of Cardiomyocyte” value came out at 69 ± 5% in experiment [3] (setting [4]), 70 ± 8% in experiment [3] (setting [5]) and 77 ± 11% in experiment [3] (setting [6]). Also, 300 µM produced 1.32 ± 3.42% inhibition in experiment [2].
`COc1ccccc1NC(=S)NC(NC(=O)/C=C/c1cccs1)C(Cl)(Cl)Cl` (stereo not drawn) [Example 4, (2E)-3-(2-thienyl)-N-[1-(2-methoxyanilino)thioformylamino-2,2,2-trichloroethyl]-2-acrylamide] registered an inhibition at 300 µM in experiment [2] of 5.55 ± 2.29%.
Regarding `COC(=O)c1ccccc1NC(=S)NC(NC(=O)/C=C/c1cccs1)C(Cl)(Cl)Cl` (stereo not drawn) [Example 10, (2E)-3-(2-thienyl)-N-[1-(2-methoxyformylanilino)thioformylamino-2,2,2-trichloroethyl]-2-acrylamide], the inhibition at 300 µM in experiment [2] is 3.24 ± 1.7%.
On to “(2E)-3-(2-thienyl)-N-[1-(1-morpholinyl)thioformyl amino-2,2,2-trichloroethyl]-2-acrylamide [Example 12]”, for which the entries for the “Survival rate (%) of Cardiomyocyte” value in experiment [3] (setting [7]), in experiment [3] (setting [4]) and in experiment [3] (setting [5]) were 79 ± 7%, 80 ± 9% and 83 ± 11%, respectively. Further, the “Inhibition rate (%) of cardiomyocytes” value in experiment [2] is given as 10.44 ± 5.66%. Besides, the “Nucleus area (%)” value in experiment [1] (10 μM) is given as 102.93 ± 5.12%. The Mitochondrial transmembrane potential in experiment [1] (10 μM) came to 133.11 ± 6.30.
In the case of `C/C=C(/C)C(=O)O[C@H]1C(C)=C2[C@H]([C@@H]1OC(=O)CCCCCCC)[C@@](C)(OC(C)=O)C[C@H](OC(=O)CCC)[C@@]1(O)[C@H]2OC(=O)[C@@]1(C)O` [TG, thapsigargin, reference compound], the “Survival rate (%) of Cardiomyocyte” value in experiment [3] (TG alone 0.4 uM (apoptosis inducer)) was 59 ± 1.1%.
Take “(2E)-3-(2-thienyl)-N-[1-(4-methylpiperazinyl)thioformylamino-2,2,2-trichloroethyl]-2-acrylamide [Example 13]”: the entries for the “Survival rate (%) of Cardiomyocyte” value in experiment [3] (setting [7]), in experiment [3] (setting [4]) and in experiment [3] (setting [5]) were 72 ± 3%, 71 ± 3% and 67 ± 3%, respectively. The “Inhibition rate (%) of cardiomyocytes” value in experiment [2] was 1.66 ± 2.70%. In experiment [1] (3 μM), the Mitochondrial transmembrane potential was found to be 116.41 ± 0.64.
The molecule `O=C(/C=C/c1cccs1)NC(NC(=S)NC1CCCCCC1)C(Cl)(Cl)Cl` (stereo not drawn) [Example 11, (2E)-3-(2-thienyl)-N-(1-cycloheptylaminothioformylamino-2,2,2-trichloroethyl)-2-acrylamide] returned an inhibition at 300 µM in experiment [2] of 7.62 ± 5.77%.
`O=C(/C=C/c1cccs1)NC(NC(=S)NCc1ccccc1)C(Cl)(Cl)Cl` (stereo not drawn) [Example 5, (2E)-3-(2-thienyl)-N-(1-benzylaminothioformylamino-2,2,2-trichloroethyl)-2-acrylamide]: in experiment [3] (setting [7]), the “Survival rate (%) of Cardiomyocyte” value was determined as 82 ± 4%. Moreover, the “Survival rate (%) of Cardiomyocyte” value in experiment [3] (setting [4]) was found to be 76 ± 8%. Further, the “Survival rate (%) of Cardiomyocyte” value in experiment [3] (setting [5]) stood at 74 ± 9%. Besides, the inhibition at 300 µM in experiment [2] was found to be 0.76 ± 4.04%. Moreover, in experiment [1] (0.3 μM), the light flux stood at 1331.12 ± 53.30, the “Nucleus area (%)” value was 120.23 ± 5.49% and the Mitochondrial transmembrane potential is 117.76 ± 1.87.

(Values after patent publication US9199978B2, “Acrylamide compounds and use thereof for inhibiting apoptosis” (CHINESE PLA GENERAL HOSPITAL, priority 2010, dated 2015).)
